# Data as given in patent publication EP0068680A1, “Antibiotics” (BEECHAM GROUP PLC, priority 1981, dated 1983).
# Like-named read-outs stand apart in the source and are kept apart here.
# Columns and labels:
# K. aerogenes A = experiment: MIC against Human Bacteria in vitro (agar dilution); assay type: cell-based; conditions: agar with 5% chocolated horse blood, 18 hours at 37°C
# M. hyorhinis ATCC 23234 = experiment: MIC against Mycoplasma in vitro (agar); assay type: cell-based; conditions: Friis broth solidified with 0.9% agarose, 6 days at 37°C
# Strep. pyogenes 64/848-C = experiment: MIC against Human Bacteria in vitro (agar dilution); assay type: cell-based; conditions: Streptococcus pyogenes, agar with 5% chocolated horse blood, 18 hours at 37°C
# Strep. dysgalactiae SPD1 = experiment: MIC against Veterinary Bacteria in vitro (agar dilution)
# Protocol: (§1) The activity of the compounds of the Examples against various veterinarily important bacteria, was assayed in vitro using two-fold serial dilutions in Diagnostic Sensitivity Test Agar inoculated with 10^4 organisms.
# M. hyorhinis ATCC 25021 = experiment: MIC against Mycoplasma in vitro (agar); assay type: cell-based; conditions: Friis broth solidified with 0.9% agarose, 6 days at 37°C
# S. dublin S7 = experiment: MIC against Veterinary Bacteria in vitro (agar dilution)
# Protocol: as §1
# [1] = test system: Strep. suis (group D) SPS11; experiment: as above
# Protocol: as §1
# Strep. agalactiae SPA1 = experiment: as above
# Protocol: as §1
# Staph. aureus W2827 = experiment: MIC against Human Bacteria in vitro (agar dilution); assay type: cell-based; conditions: agar with 5% chocolated horse blood, 18 hours at 37°C
# [2] = test system: Haemophilus influenzae Q1; experiment: as above; assay type: cell-based; conditions: agar with 5% chocolated horse blood, 18 hours at 37°C
# P. mirabilis 889 = experiment: as above; assay type: cell-based; conditions: agar with 5% chocolated horse blood, 18 hours at 37°C
# Staph. aureus Oxford = experiment: as above; assay type: cell-based; conditions: agar with 5% chocolated horse blood, 18 hours at 37°C
# M. dispar NCTC 10125 = experiment: MIC against Mycoplasma in vitro (agar); assay type: cell-based; conditions: Friis broth solidified with 0.9% agarose, 6 days at 37°C
# [3] = test system: Strep. pyogenes R80/421-A; experiment: MIC against Human Bacteria in vitro (agar dilution); assay type: cell-based; conditions: Streptococcus pyogenes, agar with 5% chocolated horse blood, 18 hours at 37°C
# [4] = test system: Corynebacterium pyogenes CY1; experiment: MIC against Veterinary Bacteria in vitro (agar dilution); conditions: Diagnostic Sensitivity Test Agar, 18 hours at 37°C
# Protocol: as §1
# [5] = test system: Haemophilus influenzae Wy21; experiment: MIC against Human Bacteria in vitro (agar dilution); assay type: cell-based; conditions: agar with 5% chocolated horse blood, 18 hours at 37°C
# M. pneumoniae ATCC 15492 = experiment: MIC against Mycoplasma in vitro (agar); assay type: cell-based; conditions: Friis broth solidified with 0.9% agarose, 6 days at 37°C
# [6] = Staphylococcus aureus, read-out: MIC
molecule,measurement,setting,value
"CC(=CC(=O)OCCCCC=CCCC(=O)O)CC1OCC(CC2OC2C(C)C(C)O)C(O)C1O (centres unmarked) [Example 1, pseudomonic acid D]",MIC,"K. aerogenes A; Klebsiella aerogenes, read-out: MIC",> 25 µg/mL
same,MIC,"M. hyorhinis ATCC 23234; Mesomycoplasma hyorhinis, ATCC23234, 144 h, read-out: MIC",1 µg/mL
same,MIC,Strep. pyogenes 64/848-C,0.25 µg/mL
same,MIC,"Strep. dysgalactiae SPD1; Streptococcus dysgalactiae, SPD1, 18 h",0.156 µg/mL
same,MIC,"M. hyorhinis ATCC 25021; Mesomycoplasma hyorhinis, ATCC25021, 144 h, read-out: MIC",1 µg/mL
same,MIC,"S. dublin S7; Salmonella enterica, S7, 18 h",> 20 µg/mL
same,MIC,"[1]; Streptococcus suis, 18 h",1.25 µg/mL
same,MIC,"Strep. agalactiae SPA1; Streptococcus agalactiae, SPA1, 18 h",0.625 µg/mL
same,MIC,Staph. aureus W2827; [6],1 µg/mL
same,MIC,[2]; read-out: MIC,0.25 µg/mL
same,MIC,"P. mirabilis 889; Proteus mirabilis, read-out: MIC",> 25 µg/mL
same,MIC,Staph. aureus Oxford; [6],1 µg/mL
same,MIC,"M. dispar NCTC 10125; 144 h, read-out: MIC",2.5 µg/mL
same,MIC,[3],0.5 µg/mL
Methyl pseudomonate D [Example 2],MIC,K. aerogenes A,>100 µg/mL
same,MIC,M. hyorhinis ATCC 23234,1.0 µg/mL
same,MIC,"Strep. dysgalactiae SPD1; Strep. dysgalactiae SPD1, Diagnostic Sensitivity Test Agar, 18 hours at 37°C",0.156 µg/mL
same,MIC,M. hyorhinis ATCC 25021,1.0 µg/mL
same,MIC,"S. dublin S7; S. dublin S7, Diagnostic Sensitivity Test Agar, 18 hours at 37°C",80 µg/mL
same,MIC,"[1]; Strep. suis (group D) SPS11, Diagnostic Sensitivity Test Agar, 18 hours at 37°C",0.625 µg/mL
same,MIC,"Strep. agalactiae SPA1; Strep. agalactiae SPA1, Diagnostic Sensitivity Test Agar, 18 hours at 37°C",0.312 µg/mL
same,MIC,Staph. aureus W2827,1.0 µg/mL
same,MIC,[2],0.5 µg/mL
same,MIC,P. mirabilis 889,>100 µg/mL
same,MIC,[4],80 µg/mL
same,MIC,[5],0.1 µg/mL
same,MIC,Staph. aureus Oxford,0.5 µg/mL
same,MIC,M. dispar NCTC 10125,1.0 µg/mL
same,MIC,M. pneumoniae ATCC 15492,>10 µg/mL
